Data reported in patent US8247211B2, “Glycopeptide antibiotics” (American Cyanamid Company, priority 2001, dated 2012).
Converted amounts (≈) assume the structure as drawn.

How the values were obtained:
Test in all cases: In vitro antibacterial evaluation: minimum inhibitory concentration (MIC), broth dilution method
Assay type in all cases: cell-based
[1] = tested on: Staphylococcus sp.
How it was run: (§1)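 Inoculum: 5×10^5 CFU/mL. Range: 64-0.06 μg/mL. Medium: Muller-Hinton II […]; NCCLS M7-A2 broth dilution. Endpoint: lowest concentration inhibiting growth. Strains include methicillin-, penicillin- and/or vancomycin-resistant clinical isolates.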

[2] = tested on: Enterococcus sp.; settings: 18 hours at 35° C.
How it was run: as §1

[3] = tested on: Escherichia coli; settings: 18 hours at 35° C.
How it was run: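 NCCLS M7-A2 broth dilution with Mueller-Hinton II, testing 64-0.06 μg/mL antibiotic against 5×10^5 CFU/mL inocula. Test strains include recent methicillin-, penicillin- or vancomycin-resistant clinical isolates. MIC is the lowest concentration preventing growth.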

[4] = tested on: Streptococcus sp.; settings: 18 hours at 35° C.
How it was run: as §1

[5] = broth dilution, inoculum 5×10^5 CFU/mL

CC(c1ccccc1)C1NC(=O)CNC(=O)C(CO)NC(=O)C(C(O)C2CNC(=N)N2C2OC(CO)C(O)C(O)C2O)NC(=O)C(C(O)C2CNC(=N)N2)NC(=O)C(Cc2ccc(OC3OC(CO)C(OC4OC5COC6(CCC(C(C)(C)C)CC6)OC5C(O)C4O)C(O)C3O)cc2)NC1=O (stereo not drawn) [Example 208, Cyclo[glycyl-β-methylphenylalanyl-O-[4-O-[4,6-O-(4-tert, butylcyclohexylidene)hexopyranosyl]hexopyranosyl]tyrosyl-3-(2-iminoimidazolidin-4-yl)seryl-3-(3-hexopyranosyl-2-iminoimidazolidin-4-yl)serylseryl]]
MIC Staphylococcus aureus (ATCC 29213) ([1]; strain ATCC 29213): 4 µg/mL (≈ 2.79 µM) | MIC Staphylococcus aureus (GC 1131) ([1]; strain GC 1131): 8 µg/mL (≈ 5.59 µM) | MIC Staphylococcus aureus (GC 3051) ([1]; strain GC 3051): 4 µg/mL (≈ 2.79 µM) | MIC Staphylococcus aureus (GC 3053) ([1]; strain GC 3053): 4 µg/mL (≈ 2.79 µM) | MIC Staphylococcus aureus (GC 4541) ([1]; strain GC 4541): 8 µg/mL (≈ 5.59 µM) | MIC Staphylococcus aureus (GC 4542) ([1]; strain GC 4542): 4 µg/mL (≈ 2.79 µM) | MIC Staphylococcus aureus-SMITH (GC 4543) ([1]; strain GC 4543): 4 µg/mL (≈ 2.79 µM) | MIC Staphylococcus aureus (GC 4544) ([1]; strain GC 4544): 8 µg/mL (≈ 5.59 µM) | MIC Staphylococcus aureus (GC 4545) ([1]; strain GC 4545): 4 µg/mL (≈ 2.79 µM) | MIC Staphylococcus haemolyticus (GC 4546) ([1]; strain GC 4546): 4 µg/mL (≈ 2.79 µM) | MIC Coagulase Negative Staphylococcus (GC 4547) ([1]; strain GC 4547): 4 µg/mL (≈ 2.79 µM) | MIC Coagulase Negative Staphylococcus (GC 4548) ([1]; strain GC 4548): 4 µg/mL (≈ 2.79 µM) | MIC Coagulase Negative Staphylococcus (GC 4549) ([1]; strain GC 4549): 4 µg/mL (≈ 2.79 µM) | MIC Coagulase Negative Staphylococcus (GC 4551) ([1]; strain GC 4551): 4 µg/mL (≈ 2.79 µM) | MIC Coagulase Negative Staphylococcus (GC 6257) ([1]; strain GC 6257): 4 µg/mL (≈ 2.79 µM) | MIC Enterococcus avium (GC 4558) ([2]; Enterococcus avium (GC 4558)): 4 µg/mL (≈ 2.79 µM) | MIC Enterococcus faecalis (ATCC 29212) ([2]; Enterococcus faecalis (ATCC 29212)): 8 µg/mL (≈ 5.59 µM) | MIC Enterococcus faecalis (GC 2242) ([2]; Enterococcus faecalis (GC 2242)): 8 µg/mL (≈ 5.59 µM) | MIC Enterococcus faecalis (GC 2691) ([2]; Enterococcus faecalis (GC 2691)): 8 µg/mL (≈ 5.59 µM) | MIC Enterococcus faecalis (GC 3059) ([2]; Enterococcus faecalis (GC 3059)): 8 µg/mL (≈ 5.59 µM) | MIC Enterococcus faecalis (GC 4552) ([2]; Enterococcus faecalis (GC 4552)): 8 µg/mL (≈ 5.59 µM) | MIC Enterococcus faecalis (GC 4553) ([2]; Enterococcus faecalis (GC 4553)): 8 µg/mL (≈ 5.59 µM) | MIC Enterococcus faecalis (GC 4554) ([2]; Enterococcus faecalis (GC 4554)): 8 µg/mL (≈ 5.59 µM) | MIC Enterococcus faecalis (GC 6189) ([2]; Enterococcus faecalis (GC 6189)): 8 µg/mL (≈ 5.59 µM) | MIC Enterococcus faecium (GC 2243) ([2]; Enterococcus faecium (GC 2243)): 8 µg/mL (≈ 5.59 µM) | MIC Enterococcus faecium (GC 4556) ([2]; Enterococcus faecium (GC 4556)): 8 µg/mL (≈ 5.59 µM) | MIC Enterococcus faecium (GC 4557) ([2]; Enterococcus faecium (GC 4557)): 8 µg/mL (≈ 5.59 µM) | MIC Enterococcus avium (GC 4558) [2, 5]: 4 µg/mL (≈ 2.79 µM) | MIC Enterococcus faecalis (ATCC 29212) [2, 5]: 8 µg/mL (≈ 5.59 µM) | MIC Enterococcus faecalis (GC 2242) [2, 5]: 8 µg/mL (≈ 5.59 µM) | MIC Enterococcus faecalis (GC 2691) [2, 5]: 8 µg/mL (≈ 5.59 µM) | MIC Enterococcus faecalis (GC 3059) [2, 5]: 8 µg/mL (≈ 5.59 µM) | MIC Enterococcus faecalis (GC 4552) [2, 5]: 8 µg/mL (≈ 5.59 µM) | MIC Enterococcus faecalis (GC 4553) [2, 5]: 8 µg/mL (≈ 5.59 µM) | MIC Enterococcus faecalis (GC 4554) [2, 5]: 8 µg/mL (≈ 5.59 µM) | MIC Enterococcus faecalis (GC 6189) [2, 5]: 8 µg/mL (≈ 5.59 µM) | MIC Enterococcus faecium (GC 2243) [2, 5]: 8 µg/mL (≈ 5.59 µM) | MIC Enterococcus faecium (GC 4556) [2, 5]: 8 µg/mL (≈ 5.59 µM) | MIC Enterococcus faecium (GC 4557) [2, 5]: 8 µg/mL (≈ 5.59 µM) | MIC Escherichia coli (ATCC 25922) ([3]; Escherichia coli (ATCC 25922)): 64 µg/mL (≈ 44.7 µM) | MIC Escherichia coli (GC 4559) ([3]; Escherichia coli (GC 4559)): >64 µg/mL | MIC Escherichia coli (GC 4560) ([3]; Escherichia coli (GC 4560)): 8 µg/mL (≈ 5.59 µM) | MIC Streptococcus agalactiae (GC 4564) ([4]; Streptococcus agalactiae (GC 4564)): 0.12 µg/mL (≈ 0.0838 µM) | MIC Streptococcus pneumoniae (ATCC 6301) ([4]; Streptococcus pneumoniae (ATCC 6301)): <0.06 µg/mL | MIC Streptococcus pneumoniae (GC 1894) ([4]; Streptococcus pneumoniae (GC 1894)): <0.06 µg/mL | MIC Streptococcus pneumoniae (GC 4565) ([4]; Streptococcus pneumoniae (GC 4565)): <0.06 µg/mL | MIC Streptococcus pyogenes (GC 4563) ([4]; Streptococcus pyogenes (GC 4563)): 0.12 µg/mL (≈ 0.0838 µM) | MIC Streptococcus agalactiae (GC 4564) [4, 5]: 0.12 µg/mL (≈ 0.0838 µM) | MIC Streptococcus pneumoniae (ATCC 6301) [4, 5]: <0.06 µg/mL | MIC Streptococcus pneumoniae (GC 1894) [4, 5]: <0.06 µg/mL | MIC Streptococcus pneumoniae (GC 4565) [4, 5]: <0.06 µg/mL | MIC Streptococcus pyogenes (GC 4563) [4, 5]: 0.12 µg/mL (≈ 0.0838 µM)
